For the first test, the system named is A549 cells. Put plainly: Cell Migration Assay (transwell, laminin). It is filed as cell-based. The conditions noted are these: Homo sapiens, laminin 10 μg/mL in lower well, test compounds 0.39˜100 μM, 6 hours at 37° C. Here is the method: Cell migration was measured with a 24-well transwell having a polycarbonate membrane (8.0 μm pore size, Costar) at the bottom of the upper chamber. Each lower well was treated with laminin (10 μg/mL) and test compounds (0.39˜100 μM) along with a serum-free RPMI1640 medium. A549 cells (Korean Cell Line Bank) were suspended in a serum-free RPMI1640 medium at a concentration of 1×10^6 cells/mL and then the test compounds were added thereto at the indicated concentrations. Each resulting solution (100 μL) was added to the upper chamber. The cells were cultured at 37° C. for 6 hours in a CO2 incubator. The upper chamber was taken out and then the cells were fixed with PBS containing 70% methyl alcohol for 10 minutes, followed by washing with PBS twice. The cells were stained with hematoxylin (Sigma) for 10 minutes and then washed with distilled water. The non-migrated cells were removed from the upper portion of the polycarbonate membrane with a cotton swab. The membranes were excised and separated from the chamber, and then mounted to a slide using a gel mount reagent (Biomeda, USA). The migrated cells (attached to the lower face of the membrane) were counted at three randomly selected sites under a microscope (×20). The cell counting was performed with the Image J program. From the counted cell numbers, each IC50 value was calculated by non-linear regression curve fit using the “GraphPad Prism” program.
The cells are pulled by laminin residing in the lower chamber and then passed through the polycarbonate membrane, so as to attach to the lower face of the membrane.
Regarding `CCC(C(=O)O)n1c(=NC(=O)c2ccc(F)c(Cl)c2)sc2cc(F)c(F)cc21` (stereo not shown) [Example 467, 2-(2-((3-chloro-4-fluorobenzoyl)imino)-5,6-difluorobenzo[d]thiazol-3(2H)-yl)butanoic acid], half-maximal inhibition (IC50) was put at 19 µM.

On to `CCCCCCC(C(=O)O)n1c(=NC(=O)c2ccc(C)cc2)sc2ccccc21` (stereo not shown) [Example 147, 2-[2-(4-methylbenzoylimino)benzo[d]thiazol-3(2H)-yl]octanoic acid], for which half-maximal inhibition (IC50) was put at 5.7 µM.

For the compound `O=C(O)Cn1c(=NC(=O)c2cccc(Cl)c2)sc2c(Cl)cccc21` [Example 358, 2-(7-chloro-2-((3-chlorobenzoyl)imino)benzo[d]thiazol-3(2H)-yl)acetic acid], 29.4 µM corresponded to half-maximal inhibition (IC50).

Consider `COc1ccc2c(c1)sc(=NC(=O)c1cccc(Cl)c1)n2C(C)C(=O)O` (stereo not shown) [Example 53, 2-{2-[(3-chlorobenzoyl)imino]-6-methoxybenzo[d]thiazol-3(2H)-yl}propionic acid], for which the IC50 (in general, the concentration that inhibits the measured activity by half) is 59 µM.

The compound `CCOc1ccc2c(c1)sc(=NC(=O)c1cccc(C(F)(F)F)c1)n2C(C)C(=O)O` (stereo not shown) [Example 192, 2-(6-ethoxy-2-((3-(trifluoromethyl)benzoyl)imino)benzo[d]thiazol-3(2H)-yl)propionic acid] came in with an IC50 of 33 µM.

Compound `CCC(C(=O)O)n1c(=NC(=O)c2cccc(Cl)c2)sc2cc3c(cc21)OCO3` (stereo not shown) [Example 240, 2-(6-((3-chlorobenzoyl)imino)-[1,3]dioxolo[4′,5′:4,5]benzo[1,2-d]thiazol-7(6H)-yl)butanoic acid] had an IC50 of 16 µM.

`CCC(C(=O)O)n1c(=NC(=O)c2cccc(Br)c2)sc2ccccc21` (stereo not shown) [Example 83, 2-[2-(3-bromobenzoylimino)benzo[d]thiazol-3(2H)-yl]butanoic acid] displayed an IC50 of 12.3 µM.

`Cc1ccc2c(c1)sc(=NC(=O)c1cccc(C(F)(F)F)c1)n2C(C)C(=O)O` (stereo not shown) [Example 195, 2-(6-methyl-2-((3-(trifluoromethyl)benzoyl)imino)benzo[d]thiazol-3(2H)-yl)propionic acid] came in with an IC50 of 87 µM.

For `COc1cccc2sc(=NC(=O)c3cccc(Cl)c3)n(C(C)C(=O)O)c12` (stereo not shown) [Example 282, 2-(2-(3-chlorobenzoylimino)-4-methoxybenzo[d]thiazol-3(2H)-yl)propionic acid], inhibition was half-maximal at 25 µM (IC50).

As for `Cc1cc2sc(=NC(=O)c3cccc(Cl)c3)n(C(C)C(=O)O)c2cc1C` (stereo not shown) [Example 212, 2-(2-((3-chlorobenzoyl)imino)-5,6-dimethylbenzo[d]thiazol-3(2H)-yl)propionic acid], the IC50 is 33 µM.

In turn, `CCC(C(=O)O)n1c(=NC(=O)c2ccc(C)cc2)sc2cc([N+](=O)[O-])ccc21` (stereo not shown) [Example 23, 2-{2-[(4-methylbenzoyl)imino]-6-nitrobenzo[d]thiazol-3(2H)-yl}butanoic acid] came in with a concentration for half-maximal inhibition (IC50) of 23.7 µM.

`CCC(C(=O)O)n1c(=NC(=O)c2cccc(Cl)c2)sc2c(F)c(F)c(F)cc21` (stereo not shown) [Example 417, 2-(2-((3-chlorobenzoyl)imino)-5,6,7-trifluorobenzo[d]thiazol-3(2H)-yl)butanoic acid] returned an IC50 of 22 µM.

In turn, `CCC(C(=O)O)n1c(=NC(=O)c2ccc(C)cc2)sc2cc(F)ccc21` (stereo not shown) [Example 153, 2-[6-fluoro-2-(4-methylbenzoylimino)benzo[d]thiazol-3(2H)-yl]butanoic acid] came in with an IC50 of 31.1 µM.

The compound `CCC(C(=O)O)n1c(=NC(=O)c2ccc(C)cc2)sc2cc(C)c(C)cc21` (stereo not shown) [Example 6, 2-{5,6-dimethyl-2-[(4-methylbenzoyl)imino]benzo[d]thiazol-3(2H)-yl}butanoic acid] showed an IC50 of 26.5 µM.

On to `O=C(O)Cn1c(=NC(=O)c2cccc(Cl)c2)sc2ccccc21` [Example 123, 2-[2-(3-chlorobenzoylimino)benzo[d]thiazol-3(2H)-yl]acetic acid], for which the IC50 amounted to 40.1 µM.

The test is the same for the next values; noted with them: laminin 10 μg/mL in lower well, test compounds 0.39˜100 μM, 6 hours at 37° C.
In the case of `Cc1ccc(C(=O)N=c2sc3ccccc3n2C(C(=O)O)c2ccccc2)cc1` (stereo not shown) [Example 152], half-maximal inhibition (IC50) was put at 22.7 µM.

For the origin of these results see patent US20150011528A1, “PHENYLIMIDE-CONTAINING BENZOTHIAZOLE DERIVATIVE OF ITS SALT AND PHARMACEUTICAL COMPOSITION COMPRISING THE SAME” (YUHAN CORPORATION, priority 2011, published 2015).
